The values that follow come from US20250296959A1, “B7-H3 TARGETING PEPTIDES AND CONSTRUCTS THEREOF” (Mariana Oncology Inc., priority 2024, published 2025).

SMILES strings stand for the structures. pKd: −log10 of the molar value. Starred links: 1 amine or outer side, 2 acyl side, 3 side chain; linkers in the order of their positions; H or OH if unused. Positions of bridges follow the written chain, without caps; N, C: chain ends. Non-standard residues stand in square brackets, D forms with d. Residues, ends and D or L forms follow the SMILES beside them. *: point of attachment. X16 = O=C(O)CCOCCOCCOCCOCCOCCOCCOCCOCCOCCOCCOCCOCCOCCOCCOCCOCCOCCOCCOCCOCCOCCC(=O)*; Ala(piperidin-4-yl) = O=C([C@H](CC1CCN([*:3])CC1)N[*:1])[*:2]; Phe(3R-OH) = O=C([C@@H](N[*:1])[C@H](O[*:3])c1ccccc1)[*:2]; DOTA = O=C(O)CN1CCN(CC(=O)O)CCN(CC(=O)*)CCN(CC(=O)O)CC1; X5 = O=C(O)CC1CCN(CC(=O)O)CCN(CC(=O)O)CCN(CC(=O)*)CC1; Trp(5-F) = N[C@@H](Cc1c[nH]c2ccc(F)cc12)C(=O)O; Ala(4-THP) = N[C@@H](CC1CCOCC1)C(=O)O; Val(3-OH) = CC(C)(O)[C@H](N)C(=O)O; X14 = CC(C)CC[C@H](NC(N)=O)C(=O)*; Cha = N[C@@H](CC1CCCCC1)C(=O)O; Tle = CC(C)(C)[C@H](N)C(=O)O; hLeu = CC(C)CC[C@H](N)C(=O)O; Nle = CCCC[C@H](N)C(=O)O; Sar = CNCC(=O)O

This assay has as its target T1, human 4lg B7-H3 (Homo sapiens, UniProt Q5ZPR3).
T1 sequence (Q5ZPR3 29-534): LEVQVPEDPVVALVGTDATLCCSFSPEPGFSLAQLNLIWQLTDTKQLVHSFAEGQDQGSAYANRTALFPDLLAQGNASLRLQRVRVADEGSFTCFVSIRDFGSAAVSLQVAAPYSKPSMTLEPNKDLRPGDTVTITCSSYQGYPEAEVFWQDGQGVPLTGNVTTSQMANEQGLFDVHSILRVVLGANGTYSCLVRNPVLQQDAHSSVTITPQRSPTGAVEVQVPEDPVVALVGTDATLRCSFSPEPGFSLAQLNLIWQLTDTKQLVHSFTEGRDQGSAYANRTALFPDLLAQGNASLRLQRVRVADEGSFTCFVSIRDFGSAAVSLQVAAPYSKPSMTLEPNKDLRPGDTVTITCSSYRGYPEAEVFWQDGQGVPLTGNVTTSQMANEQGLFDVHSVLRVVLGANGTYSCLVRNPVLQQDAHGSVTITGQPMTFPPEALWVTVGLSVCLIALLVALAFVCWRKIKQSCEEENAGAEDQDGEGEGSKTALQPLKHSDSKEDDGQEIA
The assay is described as follows: Affinity determination by surface plasmon resonance (SPR) to 4Ig B7-H3. The note with it: 4Ig B7-H3.

[1] abbreviates: SPR KD—37° C., 37° C. flow cell temperature.
[2] abbreviates: SPR KD—25° C., 25° C. flow cell temperature.

`CC(=O)N[C@@H](CCC(C)C)C(=O)N[C@@H](Cc1ccc(O)cc1)C(=O)N[C@H]1CSSC[C@@H](C(=O)N[C@@H](Cc2c[nH]c3ccc(F)cc23)C(=O)N[C@@H](Cc2ccccc2)C(=O)N[C@H](C(=O)N[C@H](CCCCNC(=O)CN2CCN(CC(=O)O)CCN(CC(=O)O)CCN(CC(=O)O)CC2)C(=O)O)[C@@H](C)O)NC(=O)[C@H](Cc2ccc(O)cc2)NC(=O)[C@H](C(C)C)NC(=O)[C@H](CC(=O)O)NC(=O)[C@H](CC2CCOCC2)NC(=O)[C@H](CCCCNC(=O)CCOCCOCCOCCOCCOCCOCCOCCOCCOCCOCCOCCOCCOCCOCCOCCOCCOCCOCCOCCOCCOCCC(=O)O)NC(=O)CNC(=O)[C@H](C(C)(C)C)NC1=O` [compound 341, Ac-hLeu-Y-C-Tbg-G-K(PEG21-COOH)-ThpA-D-V-Y-C-5FW-F-Thr-dLys(DOTA)-COOH] (Ac-[hLeu]YC[Tle]GK(X16)[Ala(4-THP)]DVYC[Trp(5-F)]FT[dK](DOTA)-OH; disulfide 3-11) had a pKd under setting [1] of 7.00 to 8.00.
Regarding `CC(=O)N[C@@H](CCC(C)C)C(=O)N[C@@H](Cc1ccc(O)cc1)C(=O)N[C@H]1CSSC[C@@H](C(=O)N[C@@H](Cc2c[nH]c3ccccc23)C(=O)N[C@@H](Cc2ccccc2)C(=O)N[C@H](C(=O)N[C@H](CCCCNC(=O)CN2CCN(CC(=O)O)CCN(CC(=O)O)CCN(CC(=O)O)CC2)C(N)=O)[C@@H](C)O)NC(=O)[C@H](Cc2ccc(O)cc2)NC(=O)[C@H](C(C)C)NC(=O)[C@H](CC(=O)O)NC(=O)[C@H](Cc2ccc(O)cc2)NC(=O)[C@H](CCCCN)NC(=O)CN(C)C(=O)[C@H](C(C)(C)C)NC1=O` [compound 75, Ac-hLeu-Y-C-Tbg-Sar-K-Y-D-V-Y-C-W-F-Thr-dLys(DOTA)-CONH2] (Ac-[hLeu]YC[Tle][Sar]KYDVYCWFT[dK](DOTA)-NH2; disulfide 3-11), under setting [2], the pKd was 8.00 to 9.00.
Take `CC(=O)N[C@@H](CCC(C)C)C(=O)N[C@@H](Cc1ccc(O)cc1)C(=O)N[C@H]1CSSC[C@@H](C(=O)N[C@@H](Cc2c[nH]c3ccc(F)cc23)C(=O)N[C@H](C(=O)N[C@H](C(=O)N[C@H](CCCCNC(=O)CN2CCN(CC(=O)O)CCN(CC(=O)O)CCN(CC(=O)O)CC2)C(=O)O)C(C)(C)O)[C@H](O)c2ccccc2)NC(=O)[C@H](Cc2ccc(O)cc2)NC(=O)[C@H](C(C)C)NC(=O)[C@H](CC(=O)O)NC(=O)[C@H](CC2CCOCC2)NC(=O)[C@H](CC2CCNCC2)NC(=O)CNC(=O)[C@H](C(C)(C)C)NC1=O` [compound 469, Ac-hLeu-Y-C-Tbg-G-PipAla-ThpA-D-V-Y-C-5FW-[(2S, 3R)beta-OH-Phe]-hydroxyVal-dLys(DOTA)-COOH] (Ac-[hLeu]YC[Tle]G[Ala(piperidin-4-yl)][Ala(4-THP)]DVYC[Trp(5-F)][Phe(3R-OH)][Val(3-OH)][dK](DOTA)-OH; disulfide 3-11): under setting [1], the pKd is above 9.00.
For `CCCC[C@H](NC(C)=O)C(=O)N[C@@H](Cc1ccc(O)cc1)C(=O)N[C@H]1CSSC[C@@H](C(=O)N[C@@H](Cc2c[nH]c3ccccc23)C(=O)N[C@@H](CC2CCCCC2)C(=O)N[C@H](C(=O)N[C@H](CCCCNC(=O)CN2CCN(CC(=O)O)CCN(CC(=O)O)CCN(CC(=O)O)CC2)C(N)=O)[C@@H](C)O)NC(=O)[C@H](Cc2ccc(O)cc2)NC(=O)[C@H](C(C)C)NC(=O)[C@H](CC(=O)O)NC(=O)[C@H](Cc2ccc(O)cc2)NC(=O)[C@H](CCCCN)NC(=O)CNC(=O)[C@H](C(C)C)NC1=O` [compound 82, Ac-Nle-Y-C-V-G-K-Y-D-V-Y-C-W-ChA-Thr-dLys(DOTA)-CONH2] (Ac-[Nle]YCVGKYDVYCW[Cha]T[dK](DOTA)-NH2; disulfide 3-11), under setting [2], the pKd is 6.52 to 7.00.
Consider `CCCC[C@H](NC(C)=O)C(=O)N[C@@H](Cc1ccc(O)cc1)C(=O)N[C@H]1CSSC[C@@H](C(=O)N[C@@H](Cc2c[nH]c3ccccc23)C(=O)N[C@@H](Cc2ccccc2)C(=O)N[C@H](C(=O)N[C@H](CCCCNC(=O)CN2CCC(CC(=O)O)CCN(CC(=O)O)CCN(CC(=O)O)CC2)C(N)=O)[C@@H](C)O)NC(=O)[C@H](Cc2ccc(O)cc2)NC(=O)[C@H](C(C)C)NC(=O)[C@H](CC(=O)O)NC(=O)[C@H](Cc2ccc(O)cc2)NC(=O)[C@H](CCCCN)NC(=O)CNC(=O)[C@H](C(C)C)NC1=O` (stereo partly drawn) [Cpd #27, Ac-Nle-Y-C-V-G-K-Y-D-V-Y-C-W-F-Thr-dLys(DOTA)-CONH2] (Ac-[Nle]YCVGKYDVYCWFT[dK](X5)-NH2; disulfide 3-11), for which the pKd reads like this: under setting [2], 8.00 to 9.00; under setting [1], 8.00 to 9.00.
On to `CC(C)CC[C@H](NC(N)=O)C(=O)N[C@@H](Cc1ccc(O)cc1)C(=O)N[C@H]1CSSC[C@@H](C(=O)N[C@@H](Cc2c[nH]c3ccc(F)cc23)C(=O)N[C@@H](Cc2ccccc2)C(=O)N[C@H](C(=O)N[C@H](CCCCNC(=O)CN2CCN(CC(=O)O)CCN(CC(=O)O)CCN(CC(=O)O)CC2)C(=O)O)C(C)(C)O)NC(=O)[C@H](Cc2ccc(O)cc2)NC(=O)[C@H](C(C)C)NC(=O)[C@H](CC(=O)O)NC(=O)[C@H](CC2CCOCC2)NC(=O)[C@H](CC2CCNCC2)NC(=O)CNC(=O)[C@H](C(C)(C)C)NC1=O` [Cpd #468, urea-hLeu-Y-C-Tbg-G-PipAla-ThpA-D-V-Y-C-5FW-F-hydroxyVal-dLys(DOTA)-COOH] (X14-YC[Tle]G[Ala(piperidin-4-yl)][Ala(4-THP)]DVYC[Trp(5-F)]F[Val(3-OH)][dK](DOTA)-OH; disulfide 2-10), for which the pKd under setting [1] is above 9.00.
